Results on seven compounds are retold here after ChEMBL document CHEMBL5150029, “Conformationally Defined Rexinoids for the Prevention of Inflammation and Nonmelanoma Skin Cancers” (J Med Chem, 2022).

The nature of experiment [1]: Induction of triglyceride level in Sprague-Dawley rat at 60 mg/kg in diet for 7 days relative to control. The following applies: time 7 day. The class given is functional.
Experiment [2] can be described thus: Induction of triglyceride level in Sprague-Dawley rat at 150 mg/kg in diet for 7 days relative to control. The class given is functional. The following applies: time 7 day.
Experiment [3] relates to RAW264.7. Briefly: Antiinflammatory activity in LPS-induced mouse RAW264.7 cells assessed as reduction in Csf3 level at 10 uM after 6 hrs by RT-PCR analysis. The class given is functional, cell-based.
The subject of experiment [4] is RAW264.7. Put plainly: Antiinflammatory activity in LPS-induced mouse RAW264.7 cells assessed as reduction in CCL22 level at 10 uM after 6 hrs by RT-PCR analysis. The class given is functional, cell-based.
The subject of experiment [5] is Epithelial cell. Briefly: Downregulation of LOR gene expression in human organotypic epithelial cells at 0.2 uM incubated for 9 days with replacement of fresh compounds every other day by qPCR analysis. The class given is functional, cell-based. The following applies: time 9.0 day.
Experiment [6] can be described thus: Induction of triglyceride level in Sprague-Dawley rat at 200 mg/kg in diet for 7 days relative to control (reference value: 0 %). The experiment is classed as functional. The following applies: time 7 day.
Experiment [7] relates to Epithelial cell. Put plainly: Upregulation of RARG gene expression in human organotypic epithelial cells at 0.2 uM incubated for 9 days with replacement of fresh compounds every other day by qPCR analysis. The experiment is classed as functional, cell-based. The following applies: time 9.0 day. A general note: In qPCR the cycle at which signal appears reflects the starting amount.

The subject of experiment [8] is RAW264.7. Put plainly: Antiinflammatory activity in LPS-induced mouse RAW264.7 cells assessed as reduction in IL-1beta level at 10 uM after 6 hrs by RT-PCR analysis. The experiment is classed as functional, cell-based.
For experiment [9], the system named is RAW264.7. Briefly: Antiinflammatory activity in LPS-induced mouse RAW264.7 cells assessed as reduction in IL-6 level at 10 uM after 6 hrs by RT-PCR analysis. The class given is functional, cell-based.
In experiment [10] the test system is RAW264.7. Briefly: Antiinflammatory activity in LPS-induced mouse RAW264.7 cells assessed as reduction in IL27 level at 10 uM after 6 hrs by RT-PCR analysis. The experiment is classed as functional, cell-based.
The subject of experiment [11] is Epithelial cell. Briefly: Upregulation of RBP1 gene expression in human organotypic epithelial cells at 0.2 uM incubated for 9 days with replacement of fresh compounds every other day by qPCR analysis. The class given is functional, cell-based. The following applies: time 9.0 day.
Experiment [12] concerns RAW264.7. Briefly: Antiinflammatory activity in LPS-induced mouse RAW264.7 cells assessed as reduction in CCL5 level at 10 uM after 6 hrs by RT-PCR analysis. The experiment is classed as functional, cell-based.
In experiment [13] the test system is Epithelial cell. Briefly: Upregulation of RARB gene expression in human organotypic epithelial cells at 0.2 uM incubated for 9 days with replacement of fresh compounds every other day by qPCR analysis. The experiment is classed as functional, cell-based. The following applies: time 9.0 day.
A short description of experiment [14]: Induction of triglyceride level in Sprague-Dawley rat at 200 mg/kg in diet for 7 days (reference value: 89 +/- 10 mg/dl). The experiment is classed as functional. The following applies: time 7 day.
Experiment [15] deals with Epithelial cell. Put plainly: Downregulation of ACER1 gene expression in human organotypic epithelial cells at 0.2 uM incubated for 9 days with replacement of fresh compounds every other day by qPCR analysis. The following applies: time 9.0 day. The experiment is classed as functional, cell-based.
Experiment [16] has as its system RAW264.7. Briefly: Antiinflammatory activity in LPS-induced mouse RAW264.7 cells assessed as reduction in Saa3 level at 10 uM after 6 hrs by RT-PCR analysis. The experiment is classed as functional, cell-based.
Experiment [17] concerns Epithelial cell. Put plainly: Downregulation of MCM7 gene expression in human organotypic epithelial cells at 0.2 uM incubated for 9 days with replacement of fresh compounds every other day by qPCR analysis. The experiment is classed as functional, cell-based. The following applies: time 9.0 day.
The test system of experiment [18] is Epithelial cell. Briefly: Upregulation of RDH10 gene expression in human organotypic epithelial cells at 0.2 uM incubated for 9 days with replacement of fresh compounds every other day by qPCR analysis. The experiment is classed as functional, cell-based. The following applies: time 9.0 day.
Experiment [19] deals with Epithelial cell. Put plainly: Upregulation of STRA6 gene expression in human organotypic epithelial cells at 0.2 uM incubated for 9 days with replacement of fresh compounds every other day by qPCR analysis. The class given is functional, cell-based. The following applies: time 9.0 day.
Experiment [20] relates to Epithelial cell. Put plainly: Upregulation of LRAT gene expression in human organotypic epithelial cells at 0.2 uM incubated for 9 days with replacement of fresh compounds every other day by qPCR analysis. The experiment is classed as functional, cell-based. The following applies: time 9.0 day.
Experiment [21] deals with Epithelial cell. Put plainly: Upregulation of CRABP2 gene expression in human organotypic epithelial cells at 0.2 uM incubated for 9 days with replacement of fresh compounds every other day by qPCR analysis. The experiment is classed as functional, cell-based. The following applies: time 9.0 day.
The test system of experiment [22] is Mus musculus. Put plainly: Prevention of UVB-induced carcinogenesis in Ptch+/- / SHK-1 mouse assessed as reduction in tumor number at 20 mg/kg measured after twice a week of UVB irradiation for 34 weeks. The experiment is classed as functional.
Experiment [23] has as its target T1, Retinoic acid receptor RXR-alpha (Homo sapiens) (UniProt P19793).
T1 sequence (whole entry): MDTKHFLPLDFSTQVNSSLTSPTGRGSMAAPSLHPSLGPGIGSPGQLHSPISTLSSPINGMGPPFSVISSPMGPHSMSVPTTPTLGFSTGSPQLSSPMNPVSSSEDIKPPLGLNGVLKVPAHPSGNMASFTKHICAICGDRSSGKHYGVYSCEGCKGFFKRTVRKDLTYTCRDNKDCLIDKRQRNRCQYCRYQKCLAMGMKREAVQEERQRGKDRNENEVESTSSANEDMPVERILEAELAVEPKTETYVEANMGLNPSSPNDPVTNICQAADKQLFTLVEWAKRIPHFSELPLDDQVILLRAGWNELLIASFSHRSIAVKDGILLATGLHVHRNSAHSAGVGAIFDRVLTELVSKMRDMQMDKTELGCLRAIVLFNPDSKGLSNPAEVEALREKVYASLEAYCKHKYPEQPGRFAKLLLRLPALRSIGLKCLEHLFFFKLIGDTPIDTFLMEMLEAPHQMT
The following applies: filed as agonist.
Description: Binding affinity to human RXRalpha LBD (T225 to T462 residues) assessed as gibbs free energy change by isothermal titration calorimetry

For experiment [24], the target named is T2, Retinoic acid receptor RXR-alpha (Homo sapiens, UniProt P19793).
T2 sequence (P19793 whole entry): T1 sequence (whole entry)
Put plainly: Binding affinity to human RXRalpha LBD (T225 to T462 residues) assessed as binding constant by isothermal titration calorimetry. On the technique in general: Isothermal titration calorimetry measures the heat released or taken up as one component is titrated into another.

In experiment [25] the target is T2, Retinoic acid receptor RXR-alpha. Put plainly: Binding affinity to human RXRalpha LBD (T225 to T462 residues) by fluorescence quenching assay.
In experiment [26] the target is T1, Retinoic acid receptor RXR-alpha (Homo sapiens). The following applies: filed as agonist. The source holds these as a separate data set.
Description: Binding affinity to human RXRalpha LBD (T225 to T462 residues) assessed as change in entropy by isothermal titration calorimetry
For experiment [27], the system named is Mus musculus. Put plainly: Prevention of UVB-induced carcinogenesis in Ptch+/- / SHK-1 mouse assessed as reduction in tumor number at 25 mg/kg measured after twice a week of UVB irradiation for 34 weeks (reference value: 8.16 +/- 1.87). The class given is functional.
Experiment [28] deals with T1, Retinoic acid receptor RXR-alpha (Homo sapiens). The following applies: filed as agonist. The source holds these as a separate data set.
Description: Binding affinity to human RXRalpha LBD (T225 to T462 residues) assessed as change in enthalpy by isothermal titration calorimetry
For experiment [29], the system named is Mus musculus. Put plainly: Prevention of UVB-induced carcinogenesis in Ptch+/- / SHK-1 mouse assessed as reduction in tumor number at 25 mg/kg measured after twice a week of UVB irradiation for 34 weeks (reference value: 100 %). The class given is functional. The arrangement: scale not given: the % may be the effect or the level left.
Experiment [30] deals with T2, Retinoic acid receptor RXR-alpha. Briefly: Agonist activity at human GAL4-fused RXRalpha LBD (T225 to T462 residues) expressed in HEK293 cells incubated for 24 hrs by Dual-Glo luciferase assay. The class given is cell-based.
In experiment [31] the test system is Mus musculus. Put plainly: Prevention of UVB-induced carcinogenesis in Ptch+/- / SHK-1 mouse assessed as reduction in tumor number at 24 mg/kg measured after twice a week of UVB irradiation for 34 weeks (reference value: 8.16 +/- 1.87). The experiment is classed as functional.
In experiment [32] the test system is Mus musculus. Put plainly: Prevention of UVB-induced carcinogenesis in Ptch+/- / SHK-1 mouse assessed as reduction in tumor number at 24 mg/kg measured after twice a week of UVB irradiation for 34 weeks (reference value: 100 %). The experiment is classed as functional. Also noted: scale not given: the % may be the effect or the level left.

SMILES strings stand for the structures. Active and inactive are the calls of the source. No cut-off for these calls is given here.

As to `CC1=C(/C=C/C(C)=C\C=C\C(C)=C\C(=O)O)C(C)(C)CCC1` [ALITRETINOIN], the Activity in experiment [1] is 400%.
`C=C(c1ccc(C(=O)O)cc1)c1cc2c(cc1C)C(C)(C)CCC2(C)C` [BEXAROTENE]: the Activity in experiment [2] is on record as 350%.
For `CC(=C/C=C/C(C)=C/C(=O)O)/C=C1\CCCC(CCC(C)C)=C1CCC(C)C`, the outcome in [3], in experiment [4], in [5], in [7], in [8] and in [9] was Active. Also, the result in experiment [10], in experiment [11], in [12], in experiment [13], in [15] and in [16] was Active. The result in [17], in [18], in [19], in experiment [20] and in experiment [21] was Active. Also, the Activity in [6] was found to be 20%; in experiment [14] it was 107 mg/dL.
As for `CC(=C/C=C/C(C)=C/C(=O)O)/C=C1\CCCc2ccccc21` [UAB-30], the Activity in experiment [22] was determined as 5.4.
With `CCCCC1=C(CCC(C)C)/C(=C/C(C)=C\C=C\C(C)=C\C(=O)O)CCC1`, the outcome in [3], in [4], in experiment [8], in experiment [9], in experiment [10] and in [12] was Active. Further, the result in [16] was Active. Also, the deltaG in experiment [23] is -7.5 kcal/mol. The values for the Kd in experiment [24] and in experiment [25] were 3100 nM and 4.7 nM, respectively. Besides, the Activity in experiment [6] was 13%; in experiment [27], 1.44; in experiment [14], 101 mg/dL; in experiment [29], 82%. This compound also had a TdeltaS in experiment [26] of 0.76 kcal/mol. For the same compound, in [28], the deltaH was -6.8 kcal/mol. The response in experiment [30] was half-maximal at 210 nM (EC50).
For the compound `CCCC1=C(CCC(C)C)/C(=C/C(C)=C\C=C\C(C)=C\C(=O)O)CCC1`, the result in experiment [3], in experiment [4], in experiment [5], in [7], in experiment [8] and in experiment [9] was Active. The outcome in experiment [10], in experiment [11], in experiment [12], in [13], in [15] and in experiment [16] was Active. The result in experiment [17], in experiment [18], in experiment [19], in [20] and in [21] was Active. Further, in experiment [23], the deltaG was -7.8 kcal/mol. Also, the Kd – broadly, the equilibrium constant for the complex coming apart – is 2000 nM in experiment [24] and 3.6 nM in experiment [25]. The Activity in [31] worked out at 3; in experiment [6], 80%; in experiment [32] it was 63%; in experiment [14], 160 mg/dL. Moreover, the TdeltaS in experiment [26] is 0.38 kcal/mol. This compound returned a deltaH in experiment [28] of -7.4 kcal/mol. Besides, the EC50 (in general, the concentration giving half of the maximal effect) in experiment [30] is 61 nM.
For the compound `CCC(C)C1=C(CCC(C)C)/C(=C/C(C)=C\C=C\C(C)=C\C(=O)O)CCC1` (mixture of isomers), the deltaG in [23] was -7.5 kcal/mol. The Kd stood at 3500 nM in experiment [24] and 4.1 nM in [25]. The Activity was 211% in experiment [6] and 277 mg/dL in experiment [14]. In addition, the TdeltaS in [26] stood at 2.38 kcal/mol. Further, the deltaH in experiment [28] was -5.1 kcal/mol. For the same compound, in experiment [30], the midpoint of the response, the EC50, lay at 23 nM.
